Data: PubChem BioAssay AID2060625 (Molecular Pharmacology Branch, DTP, NCI, 2025)

Tested on: 186277-243-T-J2-PDC spheroids with HUVEC/MSC, viability
Assay: Anticancer human tumor 186277-243-T-J2-PDC patient-derived colon adenocarcinoma cell line growth inhibition [CLK]
Details: for viability, T/C: stronger effect = lower value
Outline: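 Multi-cell-type spheroids combined patient-derived tumor cells with HUVEC endothelial cells and human mesenchymal stem cells. Paired agents were dosed in half-log steps down from about clinical Cmax, or from 10 microM where Cmax was unknown.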

[1] = curve of first compound, second compound 0.0316 µM
[2] = curve of first compound, second compound 0.1 µM
[3] = curve of first compound, second compound 0.316 µM
[4] = curve of first compound, second compound 1 µM
[5] = curve of first compound, second compound 3.16 µM
[6] = curve of first compound, second compound 10 µM
[7] = second compound 0.0316 µM, first compound 0.0316 µM
[8] = second compound 0.0316 µM, first compound 0.1 µM
[9] = second compound 0.0316 µM, first compound 0.316 µM
[10] = second compound 0.0316 µM, first compound 1 µM
[11] = second compound 0.1 µM, first compound 0.0316 µM
[12] = second compound 0.1 µM, first compound 0.1 µM
[13] = second compound 0.1 µM, first compound 0.316 µM
[14] = second compound 0.1 µM, first compound 1 µM
[15] = second compound 0.316 µM, first compound 0.0316 µM
[16] = second compound 0.316 µM, first compound 0.1 µM
[17] = second compound 0.316 µM, first compound 0.316 µM
[18] = second compound 0.316 µM, first compound 1 µM
[19] = second compound 1 µM, first compound 0.0316 µM
[20] = second compound 1 µM, first compound 0.1 µM
[21] = second compound 1 µM, first compound 0.316 µM
[22] = second compound 1 µM, first compound 1 µM
[23] = second compound 3.16 µM, first compound 0.0316 µM
[24] = second compound 3.16 µM, first compound 0.1 µM
[25] = second compound 3.16 µM, first compound 0.316 µM
[26] = second compound 3.16 µM, first compound 1 µM
[27] = second compound 10 µM, first compound 0.0316 µM
[28] = second compound 10 µM, first compound 0.1 µM
[29] = second compound 10 µM, first compound 0.316 µM
[30] = second compound 10 µM, first compound 1 µM
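Further: compound exposure lasted seven days before readout.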
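Wherever viability, T/C is given: 100% = DMSO vehicle control wells.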

Compound: CCN1CCN(Cc2ccc(Nc3ncc(F)c(-c4cc(F)c5nc(C)n(C(C)C)c5c4)n3)nc2)CC1 + CN1CCN(c2cc(C(=O)Nc3cc4cc(-c5cnn(C)c5)ccc4cn3)ccn2)CC1
- IC50 [1]: > 1000 nM
- IC50 [2]: > 1000 nM
- IC50 [3]: < 3.16 nM
- IC50 [4]: < 3.16 nM
- IC50 [5]: < 3.16 nM
- IC50 [6]: < 3.16 nM
- viability, T/C (second compound 0.0316 µM, first compound 0.00316 µM): 85.5%
- viability, T/C (second compound 0.0316 µM, first compound 0.01 µM): 79.4%
- viability, T/C [7]: 95.7%
- viability, T/C [8]: 103%
- viability, T/C [9]: 99%
- viability, T/C [10]: 102%
- viability, T/C (second compound 0.1 µM, first compound 0.00316 µM): 78.9%
- viability, T/C (second compound 0.1 µM, first compound 0.01 µM): 100%
- viability, T/C [11]: 91.4%
- viability, T/C [12]: 79.5%
- viability, T/C [13]: 71.9%
- viability, T/C [14]: 69.3%
- viability, T/C (second compound 0.316 µM, first compound 0.00316 µM): 25.5%
- viability, T/C (second compound 0.316 µM, first compound 0.01 µM): 32.6%
- viability, T/C [15]: 28.9%
- viability, T/C [16]: 29.9%
- viability, T/C [17]: 36.8%
- viability, T/C [18]: 31.8%
- viability, T/C (second compound 1 µM, first compound 0.00316 µM): 0.99%
- viability, T/C (second compound 1 µM, first compound 0.01 µM): 0.98%
- viability, T/C [19]: 0.48%
- viability, T/C [20]: 0.4%
- viability, T/C [21]: 1.43%
- viability, T/C [22]: 1.19%
- viability, T/C (second compound 3.16 µM, first compound 0.00316 µM): 2.53%
- viability, T/C (second compound 3.16 µM, first compound 0.01 µM): 1.22%
- viability, T/C [23]: 0.9%
- viability, T/C [24]: 1.58%
- viability, T/C [25]: 1.39%
- viability, T/C [26]: 2.07%
- viability, T/C (second compound 10 µM, first compound 0.00316 µM): 0.79%
- viability, T/C (second compound 10 µM, first compound 0.01 µM): 0.62%
- viability, T/C [27]: 1.4%
- viability, T/C [28]: 1.82%
- viability, T/C [29]: 0.83%
- viability, T/C [30]: 0.55%

Compound: CNC(=O)c1ccc(Nc2nc(OC3CCCC3)c3c(-c4ccc5nc(C)oc5c4)c[nH]c3n2)c(OC)c1
- viability, T/C (compound 0.1 µM): 67.9% [middle of 12 runs]
- viability, T/C (compound 0.316 µM): 46.2% [middle of 12 runs]
- viability, T/C (compound 1 µM): 33% [middle of 12 runs]
- viability, T/C (compound 3.16 µM): 32.1% [middle of 12 runs]
- viability, T/C (compound 10 µM): 33.9% [middle of 11 runs]
- IC50 (compound alone, run of 08/15/2023): 241 nM [middle of 12 runs]

Compound: O=c1[nH]cc(F)c(=O)[nH]1 + CN1CCN(c2cc(C(=O)Nc3cc4cc(-c5cnn(C)c5)ccc4cn3)ccn2)CC1
- IC50 [1]: > 10000 nM
- IC50 [2]: 6160 nM
- IC50 [3]: < 31.6 nM
- IC50 [4]: < 31.6 nM
- IC50 [5]: < 31.6 nM
- IC50 [6]: < 31.6 nM
- viability, T/C [7]: 86.8%
- viability, T/C [8]: 85.2%
- viability, T/C [9]: 101%
- viability, T/C [10]: 86.2%
- viability, T/C (second compound 0.0316 µM, first compound 3.16 µM): 73%
- viability, T/C (second compound 0.0316 µM, first compound 10 µM): 56.3%
- viability, T/C [11]: 81.4%
- viability, T/C [12]: 76.6%
- viability, T/C [13]: 87%
- viability, T/C [14]: 82.6%
- viability, T/C (second compound 0.1 µM, first compound 3.16 µM): 62.6%
- viability, T/C (second compound 0.1 µM, first compound 10 µM): 40.8%
- viability, T/C [15]: 21.7%
- viability, T/C [16]: 19.2%
- viability, T/C [17]: 22.6%
- viability, T/C [18]: 23.1%
- viability, T/C (second compound 0.316 µM, first compound 3.16 µM): 23.5%
- viability, T/C (second compound 0.316 µM, first compound 10 µM): 21%
- viability, T/C [19]: 1.33%
- viability, T/C [20]: 0.66%
- viability, T/C [21]: 0.91%
- viability, T/C [22]: 1.78%
- viability, T/C (second compound 1 µM, first compound 3.16 µM): 1.34%
- viability, T/C (second compound 1 µM, first compound 10 µM): 1.32%
- viability, T/C [23]: 3.16%
- viability, T/C [24]: 0.66%
- viability, T/C [25]: 1.53%
- viability, T/C [26]: 0.93%
- viability, T/C (second compound 3.16 µM, first compound 3.16 µM): 2.49%
- viability, T/C (second compound 3.16 µM, first compound 10 µM): 0.81%
- viability, T/C [27]: 3.05%
- viability, T/C [28]: 0.66%
- viability, T/C [29]: 0.92%
- viability, T/C [30]: 1.07%
- viability, T/C (second compound 10 µM, first compound 3.16 µM): 0.96%
- viability, T/C (second compound 10 µM, first compound 10 µM): 0.38%
